Source: patent publication US9096591B2, “Tetracyclic compounds” (Medivation Technologies, Inc., priority 2007, dated 2015)
Read-outs that look alike come from different tables or passages of the source.

Legend:
[1] = biological target: T1, human recombinant histamine H2 receptor (Homo sapiens, UniProt P25021); assay: Histamine H2 radioligand binding ([125I]Aminopotentidine)
T1 construct: expressed in transfected cells; host or cells: CHO-K1 cells
In short: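 This radioligand binding assay measured displacement of [125I]Aminopotentidine from recombinant human histamine H2 receptors. Compounds were dissolved in 1% DMSO vehicle. Specific binding was calculated by subtracting non-specific binding, defined using 3 μM Tiotidine, and activity was reported as percentage inhibition of that specific binding.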

[2] = biological target: T2, human recombinant adrenergic α1D receptor (Homo sapiens, UniProt P25100); assay: Adrenergic α1D radioligand binding ([3H]Prozosin); design: Inhibition of ligand binding, Adren. alpha1D: concentration or dose not given beside the values; conditions: for Inhibition of ligand binding, Adren. alpha1D: percent inhibition of specific binding; for inhibition at 1 µM: compounds screened at 1 μM, read-out: Inhibition of ligand binding, Adren. alpha1D (percent inhibition of specific binding)
T2 construct: expressed in transfected cells; host or cells: HEK-293 cells
T2 sequence (P25100 1-572): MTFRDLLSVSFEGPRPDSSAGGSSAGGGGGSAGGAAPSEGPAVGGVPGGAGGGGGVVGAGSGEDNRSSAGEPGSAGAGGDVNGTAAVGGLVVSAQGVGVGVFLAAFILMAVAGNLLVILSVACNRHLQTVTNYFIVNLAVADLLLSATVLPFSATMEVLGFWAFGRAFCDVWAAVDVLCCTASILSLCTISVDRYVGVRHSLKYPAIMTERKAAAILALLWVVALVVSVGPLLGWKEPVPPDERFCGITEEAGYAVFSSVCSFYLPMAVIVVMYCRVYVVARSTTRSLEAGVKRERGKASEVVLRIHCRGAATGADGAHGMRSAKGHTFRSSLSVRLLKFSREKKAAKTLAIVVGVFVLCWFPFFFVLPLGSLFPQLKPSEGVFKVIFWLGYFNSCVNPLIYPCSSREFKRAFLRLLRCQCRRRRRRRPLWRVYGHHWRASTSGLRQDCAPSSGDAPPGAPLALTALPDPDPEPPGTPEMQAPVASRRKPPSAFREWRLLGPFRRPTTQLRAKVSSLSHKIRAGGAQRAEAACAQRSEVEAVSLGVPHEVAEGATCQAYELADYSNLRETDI
Experimental: Compounds of invention were incubated with 0.6 nM [^3H]Prozosin for 60 minutes at 25° C. Non-specific binding was estimated in the presence of 10 μM phentolamine. Receptor proteins were filtered and washed, the filters were then counted to determine [^3H]Prozosin specifically bound. […] Biochemical assay results are presented as the percent inhibition of specific binding in Table 6.

[3] = biological target: T3, human recombinant adrenergic α2B receptor (Homo sapiens, UniProt P18089); assay: Adrenergic α2B radioligand binding ([3H]Rauwolscine); design: Inhibition of ligand binding, Adren. alpha2B: concentration or dose not given beside the values; conditions: for Inhibition of ligand binding, Adren. alpha2B: percent inhibition of specific binding; for inhibition at 1 µM: compounds screened at 1 μM, read-out: Inhibition of ligand binding, Adren. alpha2B (percent inhibition of specific binding)
T3 construct: expressed in transfected cells; host or cells: CHO-K1 cells
T3 sequence (P18089 1-450): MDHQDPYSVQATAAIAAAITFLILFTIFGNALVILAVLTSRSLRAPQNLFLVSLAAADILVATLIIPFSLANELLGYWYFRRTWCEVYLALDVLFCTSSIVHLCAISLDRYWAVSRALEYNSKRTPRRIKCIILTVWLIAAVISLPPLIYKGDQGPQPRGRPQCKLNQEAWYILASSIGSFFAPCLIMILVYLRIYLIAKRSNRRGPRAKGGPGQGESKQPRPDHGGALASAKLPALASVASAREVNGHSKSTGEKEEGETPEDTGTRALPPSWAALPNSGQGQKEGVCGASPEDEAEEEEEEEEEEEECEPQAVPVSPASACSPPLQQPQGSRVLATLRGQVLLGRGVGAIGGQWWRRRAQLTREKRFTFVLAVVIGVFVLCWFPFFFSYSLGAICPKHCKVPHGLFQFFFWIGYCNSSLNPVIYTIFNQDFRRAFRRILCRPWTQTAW
Experimental: To evaluate in radioligand binding assays the activity of compounds of the invention, human recombinant adrenergic α2B receptor expressed in Chinese hamster ovary (CHO-K1) cells (Uhlen S et al. Eur J. Pharmacol. 343(1):93, 1998) in a modified Tris-HCl buffer (50 mM Tris-HCl, pH 7.4, 12.5 mM MgCl2, 1 mM EDTA, 0.2% BSA) was used. Compounds of the invention were incubated with 2.5 nM [^3H]Rauwolscine for 60 minutes at 25° C. Non-specific binding was estimated in the presence of 10 μM Prozosin. Receptor proteins were filtered and washed, the filters were then counted to determine [^3H]Rauwolscine specifically bound. […] Biochemical assay results are presented as the percent inhibition of specific binding in Table 6.

[4] = biological target: T4, Serotonin (5-Hydroxytryptamine) 5-HT7 (Homo sapiens, UniProt P34969); assay: Serotonin 5-HT7 radioligand binding ([3H]LSD); design: Inhibition of ligand binding, Ser. 5-HT7: concentration or dose not given beside the values; conditions: percent inhibition of specific binding
T4 construct: expressed in transfected cells; host or cells: CHO cells
Experimental: Lysergic acid diethylamide (LSD) for 2 hours at 25° C. […] Receptor proteins were filtered and washed, the filters were then counted to determine [^3H]LSD specifically bound. […] Biochemical assay results are presented as the percent inhibition of specific binding in Table 6.

[5] = biological target: T5, human recombinant dopamine D2L receptor (Homo sapiens, UniProt P14416); assay: Dopamine D2L radioligand binding ([3H]Spiperone); conditions: compounds screened at 1 μM; read-out: Inhibition of ligand binding, Dop. D2L (percent inhibition of specific binding)
T5 construct: expressed in transfected cells; host or cells: CHO cells
Experimental: Non-specific binding was estimated in the presence of 10 μM Haloperidol. Receptor proteins were filtered and washed, the filters were then counted to determine [^3H]Spiperone specifically bound. […] Biochemical assay results are presented as the percent inhibition of specific binding in Table 6.

[6] = 1 μM compound, 0.1 nM [125I]Aminopotentidine, read-out: Histamine Binding H2, percent inhibition of specific binding
[7] = percent inhibition of specific binding, screened at 1 μM, read-out: Inhibition of ligand binding, Hist. H2
[8] = compounds screened at 1 μM, read-out: Inhibition of ligand binding, Hist. H2 (percent inhibition of specific binding)

T1 sequence (P25021 whole entry): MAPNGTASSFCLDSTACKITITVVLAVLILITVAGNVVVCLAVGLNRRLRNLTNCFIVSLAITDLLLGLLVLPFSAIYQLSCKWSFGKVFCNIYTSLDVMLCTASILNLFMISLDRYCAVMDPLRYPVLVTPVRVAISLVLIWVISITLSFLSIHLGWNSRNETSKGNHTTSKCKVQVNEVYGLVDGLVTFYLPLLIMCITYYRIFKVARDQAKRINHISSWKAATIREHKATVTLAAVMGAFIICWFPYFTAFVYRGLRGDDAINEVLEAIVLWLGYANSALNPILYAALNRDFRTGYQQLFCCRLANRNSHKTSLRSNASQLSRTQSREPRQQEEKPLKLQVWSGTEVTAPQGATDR
T4 sequence (P34969 whole entry): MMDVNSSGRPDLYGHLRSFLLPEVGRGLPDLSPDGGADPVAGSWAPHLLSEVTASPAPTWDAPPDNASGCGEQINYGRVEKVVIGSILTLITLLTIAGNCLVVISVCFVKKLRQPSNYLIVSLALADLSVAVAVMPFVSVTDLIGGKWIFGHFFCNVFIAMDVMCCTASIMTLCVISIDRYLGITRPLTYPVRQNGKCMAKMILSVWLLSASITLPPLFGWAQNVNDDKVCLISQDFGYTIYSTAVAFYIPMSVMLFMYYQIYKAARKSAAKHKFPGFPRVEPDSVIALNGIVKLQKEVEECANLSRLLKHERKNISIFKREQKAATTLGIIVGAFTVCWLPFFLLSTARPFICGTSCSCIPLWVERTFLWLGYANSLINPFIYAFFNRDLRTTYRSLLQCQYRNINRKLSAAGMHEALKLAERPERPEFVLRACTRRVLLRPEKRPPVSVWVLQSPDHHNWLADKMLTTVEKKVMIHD
T5 sequence (P14416 whole entry): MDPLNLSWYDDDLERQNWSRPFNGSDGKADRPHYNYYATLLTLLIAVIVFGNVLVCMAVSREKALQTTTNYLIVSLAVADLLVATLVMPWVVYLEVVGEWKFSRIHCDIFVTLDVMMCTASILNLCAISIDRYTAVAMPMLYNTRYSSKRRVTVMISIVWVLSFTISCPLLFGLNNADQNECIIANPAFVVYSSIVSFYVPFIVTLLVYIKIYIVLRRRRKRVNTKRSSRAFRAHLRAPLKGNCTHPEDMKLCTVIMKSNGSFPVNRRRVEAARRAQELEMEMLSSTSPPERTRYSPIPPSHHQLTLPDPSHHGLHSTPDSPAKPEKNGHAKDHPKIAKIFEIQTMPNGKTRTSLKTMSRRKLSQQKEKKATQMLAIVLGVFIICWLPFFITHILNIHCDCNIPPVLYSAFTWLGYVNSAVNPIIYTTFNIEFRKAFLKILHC

| SMILES | inhibition at 1 µM [1, 6] | inhibition at 1 µM [1, 7] | Inhibition of ligand binding, Adren. alpha1D [2] | Inhibition of ligand binding, Adren. alpha2B [3] | Inhibition of ligand binding, Ser. 5-HT7 [4] | inhibition at 0.3 µM ([1]; 0.3 μM compound, 0.1 nM [125I]Aminopotentidine, read-out: Histamine Binding H2, percent inhibition of specific binding) | inhibition at 1 µM [1, 8] | inhibition at 1 µM [2] | inhibition at 1 µM [3] | inhibition at 1 µM [5] |
| --- | --- | --- | --- | --- | --- | --- | --- | --- | --- | --- |
| CCN1CCc2c(c3ccccc3n2CCc2ccc(C)cc2)C1 [Compound 3, 2-ethyl-2,3,4,5-tetrahydro-5-(4-methylphenethyl)-1H-pyrido[4,3-b]indole] | 51% | 51% | 48% | 102% | 81% |  |  |  |  |  |
| CCN1CCc2c(c3ccccc3n2CCc2ccccc2)C1 [Compound 4, 2-ethyl-2,3,4,5-tetrahydro-5-phenethyl-1H-pyrido[4,3-b]indole] | 51% | 51% | 56% | 106% | 88% | 34% |  |  |  |  |
| CCN1CCc2c(c3ccccc3n2CCc2ccncc2)C1 [Compound 5] | 2% | 2% | 21% | 78% | 37% |  |  |  |  |  |
| CCN1CCc2c(c3ccccc3n2CCc2ccccn2)C1 [Compound 6] | -3% | -3% | 6% | 54% | 39% |  |  |  |  |  |
| CN1CCc2c(c3ccccc3n2CCc2ccncc2)C1 [Compound 10, 2,3,4,5-tetrahydro-2-methyl-5-(2-(pyridin-4-yl)ethyl)-1H-pyrido[4,3-b]indole] | 12% | 12% | 19% | 92% | 73% |  |  |  |  |  |
| CCN1CCc2c(c3ccccc3n2Cc2ccccc2)C1 [Compound 16, 5-benzyl-2-ethyl-2,3,4,5-tetrahydro-1H-pyrido[4,3-b]indole] | 3% | 3% | 12% | 10% | 14% |  |  |  |  |  |
| Cc1ccc(Cn2c3c(c4ccccc42)CN(C)CC3)cn1 [Compound 17, 2,3,4,5-tetrahydro-2-methyl-5-((6-methylpyridin-3-yl)methyl)-1H-pyrido[4,3-b]indole] | -2% | -2% | −7% | 9% | 7% |  |  |  |  |  |
| CCN1CCc2c(c3cc(C)ccc3n2CCc2ccccn2)C1 [Compound 23, 2-ethyl-2,3,4,5-tetrahydro-8-methyl-5-(2-(pyridin-2-yl)ethyl)-1H-pyrido[4,3-b]indole] | 28% | 28% | 61% | 97% | 94% |  |  |  |  |  |
| CCN1CCc2c(c3cc(C)ccc3n2CCc2ccc(C)nc2)C1 [Compound 31, 2-ethyl-2,3,4,5-tetrahydro-8-methyl-5-(2-(6-methylpyridin-3-yl)ethyl)-1H-pyrido[4,3-b]indole] | 34% | 34% | 70% | 91% | 85% |  |  |  |  |  |
| CN1CCc2c(c3cc(I)ccc3n2CCc2ccccc2F)C1 [Compound 89, 5-(2-fluorophenethyl)-2,3,4,5-tetrahydro-8-iodo-2-methyl-1H-pyrido[4,3-b]indole] | 88% | 88% | 82% | 116% | 100% |  |  |  |  |  |
| Cc1ccc2c(c1)c1c(n2Cc2ccccc2)CCN(C)C1 [Compound 137, 5-benzyl-2,3,4,5-tetrahydro-2,8-dimethyl-1H-pyrido[4,3-b]indole] | 45% | 45% | 12% | 3% | 15% |  |  |  |  |  |
| CN1CCc2c(c3ccncc3n2CCc2ccncc2)C1 [Compound 483, 7-aza-2-methyl-5-(2-(pyridin-4-yl)ethyl)-2,3,4,5-tetrahydro-1H-pyrido[4,3-b]indole] |  |  |  |  |  |  | -7% | 3% | 12% | 0% |
| CN1CCc2c(c3ncccc3n2CCc2ccccn2)C1 [Compound 484, 9-aza-2-methyl-5-(2-(pyridin-2-yl)ethyl)-2,3,4,5-tetrahydro-1H-pyrido[4,3-b]indole] |  |  |  |  |  |  | -4% | 10% | 30% | 15% |
| Cc1ccc(CCn2c3c(c4cc(I)ccc42)CN(C)CC3)cn1 [Compound 485, 2,3,4,5-tetrahydro-8-iodo-2-methyl-5-(2-(6-methylpyridin-3-yl)ethyl)-1H-pyrido[4,3-b]indole] |  |  |  |  |  |  | 71% | 69% | 98% | 43% |
| CN1CCc2c(c3cc(I)ccc3n2CC(=O)N2CCCCC2)C1 [Compound 486, 2-(1,2,3,4-tetrahydro-8-iodo-2-methylpyrido[4,3-b]indol-5-yl)-1-(piperidin-1-yl)ethanone] |  |  |  |  |  |  | 11% | 22% | 7% | 0% |
| Cc1ccc(CCn2c3c(c4cc(Br)ccc42)CN(C)CC3)cn1 [Compound 487, 8-bromo-2-methyl-5-(2-(6-methylpyridin-3-yl)ethyl)-2,3,4,5-tetrahydro-1H-pyrido[4,3-b]indole] |  |  |  |  |  |  | 80% | 90% | 100% | 42% |
| CN1CCc2c(c3cc(Br)ccc3n2CC(=O)N2CCCCC2)C1 [Compound 516, 2-(8-bromo-2-methyl-3,4-dihydro-1H-pyrido[4,3-b]indol-5(2H)-yl)-1-(piperidin-1-yl)ethanone] |  |  |  |  |  |  | 12% | 26% | 21% | -4% |
